In US11360010B1, “Methods and device for controlled cell stretch and imaging” (The Regents of the University of Colorado, a body, priority 2019, dated 2022):
Entries after “also recorded” stand apart in the source; their conditions may differ.

Assays:
[1] = system: mouse embryonic skin fibroblasts (MSFs); test: Perinuclear F-actin and γH2a.x staining after cyclic stretch routines; type: cell-based; settings: BAPTA 50 μM, KN-62 10 μM, cytochalasin D 2 μM
Protocol: (§1) Transgenic mice harboring a fluorescence tag at the H2b histone—B6.Cg-Tg (HIST1H2BB/EGFP) 1 Pa/J, Stock No: 006069—were obtained from Jackson Laboratory (Bar Harbor, Me.). All animal procedures were performed following Institutional Animal Care & Use Committee approval. Skin from embryonic mice was harvested 18.5 days post-conception. Skin was minced, washed with Hank's Balanced Salt Solution (HBSS), and incubated in 35 mm dishes in shallow medium (˜0.5 mL) to avoid floating of the tissue for 4 days, during which fibroblasts extruded from the tissue. After 4 days, remaining tissue was removed (picked out with a pipette), and extruded cells in the dish were detached using TrypLE (Gibco, Gaithersburg, Md.) and expanded in culture for another 2 days before being seeded into stretch chambers for experiments. The inner well of assembled stretch chambers was ozone activated for 30 s via corona arc discharge (BD-20; Electro-Technic Products) and coated with 50 μg/mL bovine plasma fibronectin (F1141; Sigma-Aldrich) in a total volume of 250 μL overnight at 37° C. Mouse embryonic skin fibroblasts (MSFs) were seeded into stretch chambers at a density of 80,000 cells/cm′ 1 day before experiments. MSFs were extruded and cultured in DMEM (ATCC, Manassas, Va.) containing 10% fetal bovine serum (Gibco), 1% penicillin-streptomycin (Gibco), and 25 mM HEPES (Gibco) at 37° C. and 5% CO2. To inhibit calcium signaling, MSFs were incubated with 50 μM BAPTA (A4926; Sigma-Aldrich) or 10 μM KN-62 (12142; Sigma-Aldrich) 1 h before cyclic strain experiments. To disrupt actin polymerization, MSFs were incubated with 2 μM cytochalasin D (C8273; Sigma-Aldrich) 30 min before experiments. Vehicle controls were incubated with 0.001% DMSO (276855; Sigma-Aldrich) 1 h before experiments. To test the use of chromatin dyes, cells were stained with Hoechst (NucBlue Live ReadyProbes; Life Technologies) 30 min before experiments. Stretch experiments were performed at 25° C. (room temperature) under humidified conditions.
MSFs were fixed in 4% ice-cold paraformaldehyde (PFA) for 10 min, permeabilized with 1% Triton-X100 in phosphate-buffered saline for 15, min and blocked with 10% NGS, 1% bovine serum albumin in 0.1% PBT (0.1% Tween-20 in phosphate-buffered saline) for 60 min. Primary incubation of Phospho-Histone H2A.X Ser139 (9718S; Cell Signaling Technology, Danvers, Mass.) was performed at 4° C. overnight in 0.1% PBT containing 1% bovine serum albumin at 1:400. Secondary incubation of goat anti-rabbit IgG-AF546 (Life Technologies) was performed in primary incubation buffer for 45 min at 22° C. at a dilution of 1:500. F-actin was counterstained with phalloidin-CF405 (Biotium, Fremont, Calif.) for 30 min at a dilution of 1:30. Staining was performed in containment wells. After staining, membranes were cut out of the containment well using a circular punch and mounted cell-side up onto #1.0 glass slides with ProLong Diamond Antifade Mountant (Life Technologies). Image stacks (5 μm, 1 μm step) of multiple nuclei in a 318×318 μm area were acquired on a Nikon MR confocal microscope using a 40× oil immersion objective (0.31 μm/pixel). A custom MATLAB code was used to track nuclear outlines via H2b-eGFP and to quantify perinuclear F-actin intensities and γH2a.x foci in projected image stacks. Only the projected F-actin within the nuclear outline (apical perinuclear F-actin) was counted in this analysis. To account for variations in staining and imaging (the same imaging settings were used), fluorescence channels were histogram normalized. Perinuclear F-actin intensities were calculated as the sum of normalized phalloidin intensities within a nuclear border. DNA damage foci were determined by detecting 2D peaks in the normalized γH2a.x channel using the MATLAB script FastPeakFind (v. 1.7).

[2] = system: mouse embryonic skin fibroblasts (MSFs); test: Live imaging of nuclear area and chromatin condensation (H2b-eGFP) during cyclic stretch routines; type: cell-based; settings: for change in nuclear area / chromatin condensation (H2b histogram kurtosis and skewness): BAPTA 50 μM, KN-62 10 μM, cytochalasin D 2 μM
Protocol: as §1
The stretch device was mounted on an inverted epi-fluorescence microscope (Ti-Eclipse; Nikon) with a 60× water immersion objective (0.26 μm/pixel) and an EMCCD camera (iXonEM+; Andor Technology). The surrounding of the microscope was humidified to prevent the water on the objective from evaporating during the 1 h experiment. Oil immersion is also possible, but water immersion provided better image quality with the silicone membranes used.
Using MATLAB, a sinusoidal control signal (1 Hz) was sent to the Arduino controller, resulting in a cyclic stretch routine of the membrane (FIG. 1C), with peak strains set to 5% (−0.1 V), 10% (−0.9 V), and 20% (−2.25 V) as determined by the calibration curve. Cells were cyclically stretched for 30 min, followed by 30 min of rest, during which 2 μm z-stacks (0.5 μm steps) of nuclei were acquired. During the rest period, cells experienced no stretch but a constant magnetic field using the offset Arduino input voltage (0.8 V) that keeps the piston suspended at 0% stretch. For acquisition, the cyclic stretch routine was paused for 1 min to allow for a steady imaging plane and fine readjustments in z-position due to water evaporation. Unstretched control cells (0%) were seeded into stretch chambers but kept stationary on the microscope without any magnetic field applied. Unstretched magnetic control cells (MAG) were placed stationary inside the coil without the piston, and a magnetic field corresponding to a 20% sinusoidal stretch routine was applied.
A custom MATLAB code was used to track nuclear outlines via H2b-eGFP and to generate H2b intensity histograms during an image series, from which changes in nuclear area, H2b skewness, and H2b kurtosis were calculated.

[3] = after 30 min 5% cyclic stretch, vs NT or VH control cells
[4] = after 30 min 20% cyclic stretch, vs NT or VH control cells
[5] = 30 min 5% cyclic strain, 1 Hz, vs NT/VH cells (area increases)
[6] = 30 min 5% cyclic strain, 1 Hz, vs NT/VH cells (condensation decreases)
[7] = 30 min 20% cyclic strain, 1 Hz, vs NT/VH cells (area decreases)
[8] = 30 min 20% cyclic strain, 1 Hz, vs NT/VH cells (condensation increases)
[9] = static magnetic-field-only routine (MAG), no stretch
[10] = 20% cyclic strain 30 min, Hoechst-stained vs unstained (H2b) nuclei

SMILES | number of γH2a.x foci per nucleus (DNA damage, double-strand breaks) [1, 3] | perinuclear F-actin intensities ([1]; after 30 min 5% cyclic stretch, vs NT or VH control cells, listed as BP) | number of γH2a.x foci per nucleus (DNA damage, double-strand breaks) [1, 4] | number of γH2a.x foci per nucleus (DNA damage, double-strand breaks) ([1]; static magnetic-field-only controls (MAG), listed as BP) | change in nuclear area [2, 5] | chromatin condensation (H2b histogram kurtosis and skewness) [2, 6] | change in nuclear area [2, 7] | change in nuclear area ([2]; 30 min 20% cyclic strain, 1 Hz, vs NT/VH cells (area decreases), listed as BP) | chromatin condensation (H2b histogram kurtosis and skewness) [2, 8] | chromatin condensation (H2b histogram kurtosis and skewness) ([2]; 30 min 20% cyclic strain, 1 Hz, vs NT/VH cells (condensation increases), listed as BP) | change in nuclear area [2, 9] | chromatin condensation (H2b histogram kurtosis and skewness) [2, 9] | change in nuclear area during stretch [2, 10] | chromatin condensation (histogram kurtosis and skewness) during stretch [2, 10] | change in nuclear area during rest ([2]; 30 min rest after 20% cyclic strain, Hoechst-stained vs unstained (H2b) nuclei) | perinuclear F-actin intensities ([1]; after 30 min 5% cyclic stretch, vs NT or VH control cells, listed as KN) | number of γH2a.x foci per nucleus (DNA damage, double-strand breaks) ([1]; static magnetic-field-only controls (MAG), listed as KN) | change in nuclear area ([2]; 30 min 20% cyclic strain, 1 Hz, vs NT/VH cells (area decreases), listed as KN) | chromatin condensation (H2b histogram kurtosis and skewness) ([2]; 30 min 20% cyclic strain, 1 Hz, vs NT/VH cells (condensation increases), listed as KN)
O=C(O)CN(CC(=O)O)c1ccccc1OCCOc1ccccc1N(CC(=O)O)CC(=O)O [BAPTA] | showed no difference | abrogated increases; also recorded: abrogated the increase | showed no difference | increased DNA damage | abrogated the increase in nuclear area | abrogated the increase in nuclear area and decrease in chromatin condensation | only minorly effected | had no effect | only minorly effected | had no effect | interfered with the slight decrease in nuclear area | interfered with the slight decrease in nuclear area and increase in chromatin condensation |  |  |  |  |  |  | 
CCOc1ccc(-c2nc3ccc(-c4nc5ccc(N6CCN(C)CC6)cc5[nH]4)cc3[nH]2)cc1 [Hoechst, Hoechst 33342] |  |  |  |  |  |  |  |  |  |  |  |  | reduction in nuclear area similar to unstained nuclei | reduced chromatin condensation; also recorded: Reduced chromatin compaction | no regain in nuclear areas; also recorded: no recovery; also recorded: no relaxation |  |  |  | 
CN([C@@H](Cc1ccc(OS(=O)(=O)c2cccc3cnccc23)cc1)C(=O)N1CCN(c2ccccc2)CC1)S(=O)(=O)c1cccc2cnccc12 [KN-62] | showed no difference |  | showed no difference |  | abrogated the increase in nuclear area | abrogated the increase in nuclear area and decrease in chromatin condensation | only minorly effected |  | only minorly effected |  | interfered with the slight decrease in nuclear area | interfered with the slight decrease in nuclear area and increase in chromatin condensation |  |  |  | abrogated increases; also recorded: abrogated the increase | increased DNA damage | had no effect | had no effect
